Measured values from ChEMBL document CHEMBL1777672, “Synthesis and antifungal activities of natural and synthetic biflavonoids” (2011).
In brackets after ≈: the same amount, converted by molar mass. Activity calls are given as the source filed them. The calls are words filed in the database; no cut-off is given here.

Tests used:
Aspergillus niger [1] = assay: Antifungal activity against Aspergillus niger ATCC 16404 after 48 hrs by broth microdilution technique; type: functional; conditions: ATCC 16404, 48 h
Aspergillus oryzae = assay: Antifungal activity against Aspergillus oryzae ATCC 10124 after 48 hrs by agar diffusion bioautography method; type: functional, organism-based
Fusarium solani = assay: Antifungal activity against Fusarium solani ATCC 36031 after 48 hrs by agar diffusion bioautography method; type: functional, organism-based
Candida albicans [2] = assay: Antifungal activity against Candida albicans ATCC 90028 after 48 hrs by agar diffusion bioautography method; type: functional, organism-based
Candida parapsilosis [3] = assay: Antifungal activity against Candida parapsilosis ATCC 22019 after 48 hrs by agar diffusion bioautography method; type: functional, organism-based
Cryptococcus neoformans [4] = assay: Antifungal activity against Cryptococcus neoformans ATCC 14116 after 72 hrs by agar diffusion bioautography method; type: functional, organism-based
Aspergillus niger [5] = assay: Antifungal activity against Aspergillus niger ATCC 16404 after 48 hrs by agar diffusion bioautography method; type: functional, organism-based
[6] = Antifungal activity against Rhizopus stolonifer (+) ATCC 6227b after 48 hrs by agar diffusion bioautography method; type: functional
Candida parapsilosis [7] = assay: Antifungal activity against Candida parapsilosis ATCC 22019 after 48 hrs by broth microdilution technique; type: functional; conditions: Lodderomyces parapsilosis, ATCC 22019, 48 h
Cryptococcus neoformans [8] = assay: Antifungal activity against Cryptococcus neoformans ATCC 14116 after 72 hrs by broth microdilution technique; type: functional; conditions: ATCC 14116, 72 h
[9] = Antifungal activity against Rhizopus stolonifer (+) ATCC 6227b after 48 hrs by broth microdilution technique; type: functional
Candida albicans [10] = assay: Antifungal activity against Candida albicans ATCC 90028 after 48 hrs by broth microdilution technique; type: functional; conditions: ATCC 90028, 48 h

`O=C1CC(c2ccc(O)cc2)Oc2cc(O)ccc21` (centres undefined) showed an MIC (Aspergillus niger [1]) of over 800 µM.

In the case of `O=c1cc(-c2ccc(O)c(-c3cc(-c4cc(=O)c5c(O)cc(O)cc5o4)ccc3O)c2)oc2cc(O)cc(O)c12`, the Activity (Aspergillus oryzae) was “inactive”, the Activity (Fusarium solani) was “inactive” and the Activity (Candida albicans [2]) was “inactive”. The Activity (Candida parapsilosis [3]) was “inactive”, the Activity (Cryptococcus neoformans [4]) was “inactive” and the Activity (Aspergillus niger [5]) was “Active”. The Activity [6] was “inactive” and the MIC (Aspergillus niger [1]) was 100 µM (≈ 53.8 µg/mL).

With `O=c1c(-c2c(-c3ccccc3)oc3ccccc3c2=O)c(-c2ccccc2)oc2ccccc12` the Activity (Aspergillus oryzae) was “inactive”, the Activity (Fusarium solani) was “inactive” and the Activity (Candida albicans [2]) was “inactive”. For the same compound, the Activity (Candida parapsilosis [3]) was “Active”, the Activity (Cryptococcus neoformans [4]) was “Active” and the Activity (Aspergillus niger [5]) was “inactive”. For the same compound, the Activity [6] was “Active”, the MIC (Candida parapsilosis [7]) was 400 µM (≈ 177 µg/mL) and the MIC (Cryptococcus neoformans [8]) was over 800 µM. It also gave an MIC [9] of over 800 µM.

`O=c1cc(-c2ccc(O)cc2)oc2cc(O)cc(O)c12` [APIGENIN] showed an MIC (Aspergillus niger [1]) of 6 µM (≈ 1.62 µg/mL).

For `COc1ccc(-c2cc(=O)c3cc(-c4ccc5oc(-c6ccc(OC)cc6)cc(=O)c5c4)ccc3o2)cc1`, the Activity (Aspergillus oryzae) was “inactive”, the Activity (Fusarium solani) was “inactive” and the Activity (Candida albicans [2]) was “inactive”. For the same compound, the Activity (Candida parapsilosis [3]) was “inactive”, the Activity (Cryptococcus neoformans [4]) was “inactive” and the Activity (Aspergillus niger [5]) was “inactive”. For the same compound, the Activity [6] was “inactive”.

With `O=C(/C=C/c1ccccc1-c1ccccc1/C=C/C(=O)c1ccc(OCc2ccccc2)cc1O)c1ccc(OCc2ccccc2)cc1O` the Activity (Aspergillus oryzae) was “inactive”, the Activity (Fusarium solani) was “inactive” and the Activity (Candida albicans [2]) was “inactive”. The Activity (Candida parapsilosis [3]) was “inactive”, the Activity (Cryptococcus neoformans [4]) was “Active” and the Activity (Aspergillus niger [5]) was “Active”. The Activity [6] was “inactive”, the MIC (Cryptococcus neoformans [8]) was over 800 µM and the MIC (Aspergillus niger [1]) was over 800 µM.

`O=C(/C=C/c1ccc(O)cc1)c1c(O)cc(O)cc1O` [4,2',4',6'-TETRAHYDROXYCHALCONE] gave an MIC (Candida albicans [10]) of over 800 µM, an MIC (Cryptococcus neoformans [8]) of 400 µM (≈ 109 µg/mL) and an MIC [9] of 800 µM (≈ 218 µg/mL).

In the case of `O=C1CC(c2ccccc2-c2ccccc2C2CC(=O)c3ccc(O)cc3O2)Oc2cc(O)ccc21` (centres undefined), the Activity (Aspergillus oryzae) was “inactive”, the Activity (Fusarium solani) was “inactive” and the Activity (Candida albicans [2]) was “inactive”. For the same compound, the Activity (Candida parapsilosis [3]) was “inactive”, the Activity (Cryptococcus neoformans [4]) was “inactive” and the Activity (Aspergillus niger [5]) was “inactive”. The Activity [6] was “inactive”.

For `O=C1CC(c2ccccc2-c2ccccc2C2CC(=O)c3ccc(OCc4ccccc4)cc3O2)Oc2cc(OCc3ccccc3)ccc21` (centres undefined), the Activity (Aspergillus oryzae) was “inactive”, the Activity (Fusarium solani) was “inactive” and the Activity (Candida albicans [2]) was “inactive”. For the same compound, the Activity (Candida parapsilosis [3]) was “inactive”, the Activity (Cryptococcus neoformans [4]) was “inactive” and the Activity (Aspergillus niger [5]) was “inactive”. For the same compound, the Activity [6] was “inactive”.

With `O=C1C[C@@H](c2ccc(O)c(-c3cc([C@@H]4CC(=O)c5c(O)cc(O)cc5O4)ccc3O)c2)Oc2cc(O)cc(O)c21` the Activity (Aspergillus oryzae) was “inactive”, the Activity (Fusarium solani) was “inactive” and the Activity (Candida albicans [2]) was “inactive”. The Activity (Candida parapsilosis [3]) was “inactive”, the Activity (Cryptococcus neoformans [4]) was “inactive” and the Activity (Aspergillus niger [5]) was “inactive”. For the same compound, the Activity [6] was “inactive”.

For `O=C(/C=C/c1ccc(O)c(-c2cc(/C=C/C(=O)c3c(O)cc(O)cc3O)ccc2O)c1)c1c(O)cc(O)cc1O`, the Activity (Aspergillus oryzae) was “inactive”, the Activity (Fusarium solani) was “inactive” and the Activity (Candida albicans [2]) was “Active”. For the same compound, the Activity (Candida parapsilosis [3]) was “inactive”, the Activity (Cryptococcus neoformans [4]) was “Active” and the Activity (Aspergillus niger [5]) was “inactive”. For the same compound, the Activity [6] was “Active”, the MIC (Candida albicans [10]) was 800 µM (≈ 434 µg/mL) and the MIC (Cryptococcus neoformans [8]) was 13 µM (≈ 7.05 µg/mL). The MIC [9] was 200 µM (≈ 108 µg/mL).

In the case of `COc1ccc(-c2cc(=O)c3c(OC)cc(OC)cc3o2)cc1` [TRIMETHYLAPIGENIN], the MIC (Aspergillus niger [1]) was over 800 µM.

Work on `COc1ccc(/C=C/C(=O)c2c(O)cc(OC)cc2OC)cc1` [FLAVOKAWAIN A] yielded an MIC (Aspergillus niger [1]) of over 800 µM.

For `O=C1CC(c2ccc(OCc3ccccc3)c(-c3cc(C4CC(=O)c5ccc(OCc6ccccc6)cc5O4)ccc3OCc3ccccc3)c2)Oc2cc(OCc3ccccc3)ccc21` (centres undefined), the Activity (Aspergillus oryzae) was “inactive”, the Activity (Fusarium solani) was “inactive” and the Activity (Candida albicans [2]) was “inactive”. The Activity (Candida parapsilosis [3]) was “inactive”, the Activity (Cryptococcus neoformans [4]) was “inactive” and the Activity (Aspergillus niger [5]) was “inactive”. For the same compound, the Activity [6] was “inactive”.

For `O=c1c(O)c(-c2ccc(O)c(-c3cc(-c4oc5cc(O)cc(O)c5c(=O)c4O)ccc3O)c2)oc2cc(O)cc(O)c12`, the Activity (Aspergillus oryzae) was “inactive”, the Activity (Fusarium solani) was “inactive” and the Activity (Candida albicans [2]) was “inactive”. The Activity (Candida parapsilosis [3]) was “inactive”, the Activity (Cryptococcus neoformans [4]) was “inactive” and the Activity (Aspergillus niger [5]) was “inactive”. The Activity [6] was “inactive”.

In the case of `C[C@@H]1[C@H](O)[C@@H](C)/C=C/C=C/C=C/C=C/C=C/C=C/C=C/[C@H](O[C@@H]2O[C@H](C)[C@@H](O)[C@H](N)[C@@H]2O)C[C@@H]2O[C@](O)(C[C@@H](O)C[C@@H](O)[C@H](O)CC[C@@H](O)C[C@@H](O)CC(=O)O[C@H]1C)C[C@H](O)[C@H]2C(=O)O`, the Activity (Aspergillus oryzae) was “Active”, the Activity (Fusarium solani) was “Active” and the Activity (Candida albicans [2]) was “Active”. The Activity (Candida parapsilosis [3]) was “Active”, the Activity (Cryptococcus neoformans [4]) was “Active” and the Activity (Aspergillus niger [5]) was “Active”. For the same compound, the Activity [6] was “Active”.

`O=C(/C=C/c1ccccc1)c1ccc(OCc2ccccc2)cc1O` showed an MIC (Cryptococcus neoformans [8]) of over 800 µM and an MIC (Aspergillus niger [1]) of 100 µM (≈ 33 µg/mL).

With `O=c1cc(-c2ccc(O)cc2)oc2ccccc12` the MIC (Candida parapsilosis [7]) was 200 µM (≈ 47.6 µg/mL).

With `O=c1cc(-c2ccccc2-c2ccccc2-c2cc(=O)c3ccccc3o2)oc2ccccc12` the Activity (Aspergillus oryzae) was “inactive”, the Activity (Fusarium solani) was “inactive” and the Activity (Candida albicans [2]) was “inactive”. For the same compound, the Activity (Candida parapsilosis [3]) was “inactive”, the Activity (Cryptococcus neoformans [4]) was “inactive” and the Activity (Aspergillus niger [5]) was “Active”. For the same compound, the Activity [6] was “Active”, the MIC (Aspergillus niger [1]) was over 800 µM and the MIC [9] was 800 µM (≈ 354 µg/mL).

With `COc1cc(O)c(C(=O)/C=C/c2ccc(OC)c(-c3cc(/C=C/C(=O)c4c(O)cc(OC)cc4OC)ccc3OC)c2)c(OC)c1` the Activity (Aspergillus oryzae) was “inactive”, the Activity (Fusarium solani) was “inactive” and the Activity (Candida albicans [2]) was “inactive”. For the same compound, the Activity (Candida parapsilosis [3]) was “inactive”, the Activity (Cryptococcus neoformans [4]) was “inactive” and the Activity (Aspergillus niger [5]) was “Active”. For the same compound, the Activity [6] was “inactive” and the MIC (Aspergillus niger [1]) was 13 µM (≈ 8.15 µg/mL).

For `O=C1CC(c2ccc(O)c(-c3cc(C4CC(=O)c5ccc(O)cc5O4)ccc3O)c2)Oc2cc(O)ccc21` (centres undefined), the Activity (Aspergillus oryzae) was “inactive”, the Activity (Fusarium solani) was “inactive” and the Activity (Candida albicans [2]) was “inactive”. The Activity (Candida parapsilosis [3]) was “inactive”, the Activity (Cryptococcus neoformans [4]) was “inactive” and the Activity (Aspergillus niger [5]) was “Active”. The Activity [6] was “inactive” and the MIC (Aspergillus niger [1]) was 200 µM (≈ 102 µg/mL).

With `O=C(/C=C/c1ccc(OCc2ccccc2)c(-c2cc(/C=C/C(=O)c3c(O)cc(OCc4ccccc4)cc3OCc3ccccc3)ccc2OCc2ccccc2)c1)c1c(O)cc(OCc2ccccc2)cc1OCc1ccccc1` the Activity (Aspergillus oryzae) was “inactive”, the Activity (Fusarium solani) was “inactive” and the Activity (Candida albicans [2]) was “inactive”. The Activity (Candida parapsilosis [3]) was “inactive”, the Activity (Cryptococcus neoformans [4]) was “inactive” and the Activity (Aspergillus niger [5]) was “inactive”. For the same compound, the Activity [6] was “inactive”.

Compound `O=C1CC(c2ccc(OCc3ccccc3)cc2)Oc2cc(OCc3ccccc3)cc(O)c21` (centres undefined) has an MIC (Candida albicans [10]) of over 800 µM.

For `O=C1CC(c2ccc(OCc3ccccc3)c(-c3cc(C4CC(=O)c5c(O)cc(OCc6ccccc6)cc5O4)ccc3OCc3ccccc3)c2)Oc2cc(OCc3ccccc3)cc(O)c21` (centres undefined), the Activity (Aspergillus oryzae) was “inactive”, the Activity (Fusarium solani) was “inactive” and the Activity (Candida albicans [2]) was “Active”. The Activity (Candida parapsilosis [3]) was “inactive”, the Activity (Cryptococcus neoformans [4]) was “inactive” and the Activity (Aspergillus niger [5]) was “inactive”. The Activity [6] was “inactive” and the MIC (Candida albicans [10]) was over 800 µM.

With `O=c1cc(-c2ccc(O)cc2)oc2ccc(-c3ccc4oc(-c5ccc(O)cc5)cc(=O)c4c3)cc12` the Activity (Aspergillus oryzae) was “inactive”, the Activity (Fusarium solani) was “inactive” and the Activity (Candida albicans [2]) was “inactive”. For the same compound, the Activity (Candida parapsilosis [3]) was “Active”, the Activity (Cryptococcus neoformans [4]) was “inactive” and the Activity (Aspergillus niger [5]) was “inactive”. For the same compound, the Activity [6] was “inactive” and the MIC (Candida parapsilosis [7]) was 400 µM (≈ 190 µg/mL).

`O=c1cc(-c2ccccc2)oc2ccccc12` [FLAVONE] gave an MIC (Candida parapsilosis [7]) of 200 µM (≈ 44.4 µg/mL), an MIC (Cryptococcus neoformans [8]) of 100 µM (≈ 22.2 µg/mL) and an MIC (Aspergillus niger [1]) of 800 µM (≈ 178 µg/mL). For the same compound, the MIC [9] was 100 µM (≈ 22.2 µg/mL).

In the case of `COc1cc(OC)c2c(=O)cc(-c3ccc(OC)c(-c4cc(-c5cc(=O)c6c(OC)cc(OC)cc6o5)ccc4OC)c3)oc2c1`, the Activity (Aspergillus oryzae) was “inactive”, the Activity (Fusarium solani) was “inactive” and the Activity (Candida albicans [2]) was “inactive”. For the same compound, the Activity (Candida parapsilosis [3]) was “inactive”, the Activity (Cryptococcus neoformans [4]) was “inactive” and the Activity (Aspergillus niger [5]) was “Active”. For the same compound, the Activity [6] was “inactive” and the MIC (Aspergillus niger [1]) was 400 µM (≈ 249 µg/mL).

For `O=C(/C=C/c1ccc(OCc2ccccc2)c(-c2cc(/C=C/C(=O)c3ccc(OCc4ccccc4)cc3O)ccc2OCc2ccccc2)c1)c1ccc(OCc2ccccc2)cc1O`, the Activity (Aspergillus oryzae) was “inactive”, the Activity (Fusarium solani) was “inactive” and the Activity (Candida albicans [2]) was “inactive”. For the same compound, the Activity (Candida parapsilosis [3]) was “inactive”, the Activity (Cryptococcus neoformans [4]) was “Active” and the Activity (Aspergillus niger [5]) was “inactive”. For the same compound, the Activity [6] was “inactive”.
